# Reference: paper PMC4372995 (Journal of the American Chemical Society, 2015)
# Read-outs that look alike come from different tables or passages of the source.
# Tests used:
# Assay type in all cases: cell-based
# [1] = molecular target: T1, RhlR (Pseudomonas aeruginosa, UniProt P54292); test: RhlR reporter antagonism in E. coli, […] vs […] BHL; settings: read-out: E. coli / RhlR ^b / antagonism (%) ^g
# [2] = molecular target: T1, RhlR; test: RhlR reporter antagonism in E. coli, […] vs […] BHL; settings: read-out: E. coli / RhlR ^b / antagonism (%) ^g; remark: listed apart in the source
# [3] = molecular target: T1, RhlR; test: RhlR reporter agonism in E. coli at […]; settings: 100 µM
# T1 sequence (P54292 whole entry): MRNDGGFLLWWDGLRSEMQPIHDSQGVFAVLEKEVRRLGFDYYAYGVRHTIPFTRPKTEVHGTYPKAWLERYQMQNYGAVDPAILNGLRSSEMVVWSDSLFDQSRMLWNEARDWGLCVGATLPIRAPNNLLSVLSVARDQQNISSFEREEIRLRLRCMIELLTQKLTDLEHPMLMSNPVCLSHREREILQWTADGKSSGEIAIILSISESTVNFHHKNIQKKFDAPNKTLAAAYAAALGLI
compound,measurement,setting,value
O=C(Cc1ccc(I)cc1)N[C@H]1CCOC1=O [C10],inhibition at 100 µM,[1],84%
O=C(COc1ccc(I)cc1)N[C@H]1CCOC1=O [E22],inhibition at 100 µM,[2],74%
"O=C(CCCOc1cccc(Br)c1)NC1CCSC1=O (stereo not drawn) [compound 5, mBTL]",PAO1 / pyocyanin inhibition (%),[3],83 % agonism at 100 µM
